For one data set, the system named is HT1080 cells. Description: FBS-directed matrigel invasion of HT1080 cells (xCELLigence RTCA). The data set is classed as cell-based, human. From the text: FIG. 5 Peptides RI-1, RI-2, RI-3, RI-4 and RI-5 reduced by 33%, 35%, 81%, 52% and 11%, respectively, the extent of FBS-directed matrigel invasion of HT1080 cells (A), as assessed in real time using the xCELLigence RTCA technology. The inhibitory effect of RI-3 is dose-dependent (B) (Example 5).
Cell migration is a prerequisite for cancer invasion. Therefore, we investigated whether retro-inverso peptides prevent matrigel invasion of HT1080 cells using the xCELLigence RTCA technology. Cells were seeded on polymerized matrigel and lower chambers were filled with DMEM (CTRL), growth medium (None) or growth medium with 10 nM the indicated peptides (A), or with increasing concentrations of RI-3 (B). Matrigel invasion was monitored in real time for 20 (A) or 18 (B) hrs at 37° C., 5% CO2 and the impedance values were automatically monitored as changes in cell index. Data represent means±SD from quadruplicate experiments, each representative of 2 replicates. HT1080 cells were able to cross matrigel in the presence of 10% FBS. All retro-inverso peptides caused a reduction of FBS-directed cell migration although to different extent.

The nature of data set [1]: Stability in bovine serum, read out by HT1080 migration (xCELLigence). The conditions noted are these: 10^−3 mol/L in serum 18 hrs at 37° C., then tested at 10 nM. The data set is classed as in vitro ADME. The method, then: FIG. 7 The retro-inverso peptide RI-3 is stable when pre-incubated in bovine (A) or human serum (B) as assessed in real time using the xCELLigence technology (A) or in Boyden chambers (B) (Example 7).
The stability of the retro-inverso peptide RI-3 in bovine and human serum was investigated through incubation of the peptide at a 10^−3 mol/L in serum for 18 hrs at 37° C. HT1080 cells were allowed to migrate toward DMEM (CTRL), 10% FBS (None), 10% FBS plus 10 nM RI-3 or 10% FBS with 10 nM RI-3 pre-incubated with bovine serum and the impedance values were automatically monitored in real time by the xCELLigence system for 18 hrs and expressed as cell index. Data represent the means from a quadruplicate experiment representative of 2 replicates. […] The stability of RI-3 in human serum was further investigated in cell invasion experiments performed in Boyden chambers. HT1080 cells were allowed to invade matrigel for 6 hrs, toward DMEM (CTRL), 10% FBS (None), 10% FBS plus 10 nM RI-3 or 10% FBS with 10 nM RI-3 pre-incubated with human serum. For quantitative analysis of cell invasion, the basal value assessed in the absence of FBS (CTRL) was taken as 100% and all values were reported relative to that. Data are the means±SD from a triplicate experiment. *Statistical significance was calculated against None with p<0.005. […]

In data set [2] the test system is human osteosarcoma Saos-2. The data set can be described thus: Matrigel invasion (xCELLigence RTCA), Saos-2. It counts as cell-based. The conditions noted are these: 10 nM, 20 hrs. The method, then: (§1) FIG. 8 At the concentration of 10 nM the retro-inverso peptide RI-3 prevents matrigel invasion of tumor cells from human osteosarcoma Saos-2 (A), chondrosarcoma Sarc (B), melanoma A375 (C), metastatic melanoma A375M6 (D), ovarian carcinoma SKOV-3 cells (E), or primary ovarian cancer cells derived from a tumor excision (OV-53) (F), as monitored in real-time for 20 hr as changes in cell index by the xCELLigence RTCA system (Example 8).
(§2) To investigate the ability of RI-3 to prevents matrigel invasion of tumor cells form different tissue origins, human osteosarcoma Saos-2 (A), chondrosarcoma Sarc (B) melanoma A375 (C), metastatic melanoma A375M6 (D), ovarian carcinoma SKOV-3 cells (E) or primary ovarian cancer cells derived from a tumor excision (OV-53) (F) were seeded on polymerized matrigel and allowed to invade matrigel in the absence (None) or in the presence of 10 nM RI-3. Cell invasion was monitored in real-time for 20 hrs as changes in cell index by the xCELLigence RTCA system. Data represent mean±SD from quadruplicate experiments. All cell lines were able to cross matrigel, although to a different extent. In all case RI-3 reduced matrigel invasion by about 30%, 31%, 64%, 57%, 53% and 68%, of Saos-2, Sarc, A375, A375M6, SKOV-3 and OV-53 cells, respectively.

A further data set has as its system chondrosarcoma Sarc. The data set can be described thus: Matrigel invasion (xCELLigence RTCA), Sarc. It counts as cell-based, human. The conditions noted are these: 10 nM, 20 hrs. Here is the method: as §1, §2
The test system of data set [3] is ovarian carcinoma SKOV-3 cells. Description: Matrigel invasion (xCELLigence RTCA), SKOV-3. The data set is classed as cell-based, human. The conditions noted are these: 10 nM, 20 hrs. The method, then: as §1, §2
For another data set, the system named is melanoma A375. The data set can be described thus: Trans-endothelial migration through HUVEC monolayer (xCELLigence RTCA), A375. It counts as cell-based, human. The conditions noted are these: 10 nM, 5 hrs. Here is the method: (§3) FIG. 9 At the concentration of 10 nM the retro-inverso peptide RI-3 affects trans-endothelial migration of human chondrosarcoma Sarc (A), melanoma A375 (B), ovarian carcinoma SKOV-3 (C) cells, or THP1 monocytes (D), as monitored by the xCELLigence RTCA system (Example 9).
(§4) The entry of tumor cells into bloodstream is one of the earliest events of the metastatic process. The ability of RI-3 to affect trans-endothelial migration of human chondrosarcoma Sarc (A) melanoma A375 (B), ovarian carcinoma SKOV-3 (C) cells, or THP1 monocytes (D) was monitored by the xCELLigence RTCA system. Human Umbilical Vein Endothelial Cells (HUVEC) (1×10^4 cells/well) suspended in growth medium, were allowed to grow for 20-25 hrs until they form a confluent monolayer, prior to seeding Sarc, A375, SKOV-3, or THP-1 cells (1×10^4 cells/well) in growth medium in the absence (None) or in the presence of 10 nM RI-3. The experiments were performed twice in quadruplicate. When cells cross the endothelial monolayer, there is a drop in electrical resistance which is monitored in real-time for 5 hrs as the cell index changes due to the rupture of endothelial monolayer. All cell lines were able to reduce endothelial monolayer integrity. The addition of 10 nM RI-3 inhibited the capability of Sarc, A375, SKOV-3, and THP-1 cells to disrupt endothelial monolayers by 17%, 22%, 58%, and 36% respectively.

The subject of a further data set is ovarian carcinoma SKOV-3. Description: Trans-endothelial migration through HUVEC monolayer (xCELLigence RTCA), SKOV-3. The data set is classed as cell-based, human. The conditions noted are these: 10 nM, 5 hrs. Here is the method:
as §3, §4

A further data set deals with THP1 monocytes. Description: Trans-endothelial migration through HUVEC monolayer (xCELLigence RTCA), THP-1. It counts as cell-based, human. The note with it: 10 nM, 5 hrs. The method, then:
as §3, §4

Each structure is given as a SMILES string. Non-standard residues stand in square brackets, D forms with d. Residues, ends and D or L forms follow the SMILES beside them. Aib = CC(C)(N)C(=O)O

Turning to `CC(=O)N[C@H](Cc1ccc(O)cc1)C(=O)N[C@H](CCCNC(=N)N)C(=O)NC(C)(C)C(=O)N[C@H](CCCNC(=N)N)C(N)=O` [RI-3, Ac-(D)-Tyr-(D)-Arg-Aib-(D)-Arg-NH2] (Ac-[dY][dR][Aib][dR]-NH2), the “reduction of the extent of FBS-directed cell invasion (matrigel)” value in the data set on HT1080 cells (10 nM peptide, growth medium, 20 hrs) came out at 81%. Also, the “dose dependence of the inhibition of matrigel invasion” value with HT1080 cells (increasing concentrations, 18 hrs) is “maximal effect being reached in the nanomolar range”. Also, in data set [1], the “stability after pre-incubation in bovine serum” value was “stable to enzymatic digestion”. Also, the “reduction of matrigel invasion” value in data set [2] is on record as “about 30%”; in the data set with chondrosarcoma Sarc it was roughly 31%; in data set [3], roughly 53%. In addition, the entries for the “inhibition of the capability to disrupt endothelial monolayers” value in the data set on melanoma A375, with ovarian carcinoma SKOV-3 and with THP1 monocytes were 22%, 58% and 36%, respectively.
